According to patent publication US20260216294A1, “BETA 2-ADRENERGIC RECEPTOR AGONISTS FOR TREATMENT OR PREVENTION OF MUSCLE WASTING” (ATROGI AB, priority 2023, published 2026):

Tests used:
[1] = tested on: L6-myotubes; experiment: Measurement of intracellular cAMP levels in differentiated L6-myotubes (Biological Example 3); assay type: cell-based; settings: for Emax at 10 µM: 0.25 h
Method in brief: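 Intracellular cAMP quantified by AlphaScreen after ethanol extraction and lysis of L6 myotubes. Cells were serum-starved overnight, then exposed for 15 min to compound (final 1×10^−5 M) or isoprenaline in IBMX-containing (1 mM) HBSS buffer, pH 7.4.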

[2] = tested on: L6-myotubes; experiment: Glucose uptake in differentiated L6-myotubes (Biological Example 2); assay type: cell-based; settings: for Emax at 10 µM: read-out: Biological example 2 (GU)
Method in brief: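 Uptake was quantified as radioactivity in 0.2 M NaOH lysates after a 10 min pulse of 50 nM ^3H-2-deoxyglucose. The pulse followed two agonist exposures at 1×10^−5 M final (isoprenaline or test compound): 1 h 40 min, then 20 min in glucose-free medium after washing. L6 myotubes had been starved overnight in medium with 0.5% fatty-acid-free BSA.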

[3] = intracellular cAMP in differentiated L6-myotubes, compound at 10 μM, activity relative to isoproterenol at 10 μM
[4] = glucose uptake in differentiated L6-myotubes, compound at 10 μM, activity relative to isoproterenol at 10 μM
[5] = intracellular cAMP, compound at 10 μM relative to isoproterenol at 10 μM
[6] = glucose uptake, compound at 10 μM relative to isoproterenol at 10 μM

Compound	Emax at 10 µM [1, 3] [%]	Emax at 10 µM [2, 4] [%]	Emax at 10 µM [1, 5] [%]	Emax at 10 µM [2, 6] [%]	other results
O[C@H](c1cccc(F)c1)[C@H]1CC[C@H](Cc2ccc(Cl)cc2)N1 [Compound 393, (R)-{(2R,5R)-5-[(p-chlorophenyl)methyl]-2-pyrrolidinyl}(m-fluorophenyl)methanol]	< 25	> 75	–	–	–
CC(=O)N(C)[C@H]1CC[C@@H](CC(C)(C)NC[C@H](O)c2cncc(F)c2)CC1 [Compound 492]	–	–	–	–	Biological example 3 (CAMP) [1, 3]: − (if it less than 25% it is denoted with −); Biological example 2 (GU) [2, 4]: + (if it is between 50 and 25% it is denoted with +)
CC(=O)N[C@H]1CC[C@H](CC(C)(C)NC[C@H](O)c2cccc(C(F)(F)F)n2)CC1 [Compound 460]	< 25	50 to 75	–	–	–
CC(C)(C[C@H]1CC[C@H](S(N)(=O)=O)CC1)NC[C@H](O)c1cccc(F)c1 [Compound 516, (1R,4r)-4-{2-[(R)-2-(m-fluorophenyl)-2-hydroxyethylamino]-2-methylpropyl} cyclohexanesulfonamide]	< 25	> 75	–	–	–
CC12CCC([C@@H](O)c3cccc(F)c3)(CC1)N2 [Compound 178, (S)-(m-fluorophenyl)(4-methyl-7-azabicyclo[[2.2.1]]hept-1-yl)methanol]	–	–	< 25	25 to 50	–
CO[C@H]1CC[C@H](C[C@H]2CC[C@H]([C@@H](O)c3cncc(F)c3)N2)CC1 [Compound 340, (S)-[(2R,5R)-5-{[(1r,4R)-4-methoxycyclohexyl]methyl}-2-pyrrolidinyl](5-fluoro-3-pyridyl)methanol]	< 25	25 to 50	–	–	–
CO[C@H]1CC[C@H](CCCNC[C@H](O)c2cncc(F)c2)CC1 [Compound 261, (R)-1-(5-fluoro-3-pyridyl)-2-{3-[(1r,4S)-4-methoxycyclohexyl]propylamino}-1-ethanol]	< 25	< 25	–	–	–
CO[C@H]1CC[C@H](CCC(C)(C)NC[C@H](O)c2cncc(F)c2)CC1 [Compound 267, (R)-2-{1,1-dimethyl-3-[(1r,4S)-4-methoxycyclohexyl]propylamino}-1-(5-fluoro-3-pyridyl)-1-ethanol]	< 25	25 to 50	–	–	–
COC(=O)[C@H]1CC[C@@H](CC(C)(C)NC[C@H](O)c2cncc(F)c2)CC1 [Compound 322, methyl (1S,4s)-4-{2-[(R)-2-(5-fluoro-3-pyridyl)-2-hydroxyethylamino]-2-methylpropyl} cyclohexanecarboxylate]	< 25	> 75	–	–	–
CC(C)(CC[C@H]1CC[C@@H](O)CC1)NC[C@H](O)c1cncc(F)c1 [Compound 296, (R)-2-{1,1-dimethyl-3-[(1s,4R)-4-hydroxycyclohexyl]propylamino}-1-(5-fluoro-3-pyridyl)-1-ethanol]	< 25	> 75	–	–	–
CCCCNCC(O)c1cc(O)cc(O)c1 (stereo not drawn) [Compound 26, 5-[2-(butylamino)-1-hydroxyethyl]resorcinol]	–	–	< 25	50 to 75	–
CC(C)(C[C@H]1CC[C@H](NS(C)(=O)=O)CC1)NC[C@H](O)c1cncc(F)c1 [Compound 360, (R)-2-{1,1-dimethyl-2-[(1r,4R)-4-(mesylamino)cyclohexyl]ethylamino}-1-(5-fluoro-3-pyridyl)-1-ethanol]	< 25	> 75	–	–	–
CCC(C)NCC(O)c1ccc(O)cc1 (stereo not drawn) [Compound 5, 2-(sec-butylamino)-1-(p-hydroxyphenyl)-1-ethanol]	–	–	< 25	50 to 75	–
O[C@@H](c1cccc(F)c1)C12CCC(CCc3cccnc3)(CC1)N2 [Compound 446, (R)-(m-fluorophenyl){4-[2-(3-pyridyl)ethyl]-7-azabicyclo[[2.2.1]]hept-1-yl}methanol]	–	–	–	–	Biological example 3 (CAMP) [1, 3]: ++ (if it is between 75 and 50% it is denoted with ++); Biological example 2 (GU) [2, 4]: +++ (If a compound at 10 μM shows activity of more than 75% of that of isoproterenol at 10 μM, the activity is denoted with +++)
CC1(C)CC[C@H]([C@@H](O)c2cccc(Cl)c2)N1 [Compound 153, (S)-[(R)-5,5-dimethyl-2-pyrrolidinyl](m-chlorophenyl)methanol]	–	–	< 25	25 to 50	–
CCC[C@H]1CCC[C@H]([C@H](O)c2cc(F)cc(F)c2)N1 [Compound 68]	–	–	< 25	50 to 75	–
CO[C@H]1CCC[C@@H](C(C)(C)NC[C@H](O)c2cncc(F)c2)C1 [Compound 270, (R)-2-{1-[(1R,3S)-3-methoxycyclohexyl]-1-methylethylamino}-1-(5-fluoro-3-pyridyl)-1-ethanol]	50 to 75	> 75	–	–	–
CC12CC(C1)[C@H]([C@@H](O)c1cccc(Cl)c1)N2 [Compound 208]	< 25	50 to 75	–	–	–
CO[C@H]1CC[C@H](C(C)(C)NC[C@H](O)c2cccc(F)c2)CC1 [Compound 239, (R)-1-(m-fluorophenyl)-2-{1-methyl-1-[(1r,4R)-4-methoxycyclohexyl]ethylamino}-1-ethanol]	< 25	> 75	–	–	–
CCC[C@H]1CCC[C@H]([C@H](O)c2ccc(F)c(F)c2)N1 [Compound 67, (R)-[(2R,6S)-6-propyl-2-piperidyl](3,4-difluorophenyl)methanol]	–	–	< 25	25 to 50	–

Compound	Emax at 10 µM [1, 3] [%]	Emax at 10 µM [2, 4] [%]	Emax at 10 µM [1, 5] [%]	Emax at 10 µM [2, 6] [%]	other results
CCCC(C)NCC(O)c1cc(Cl)c(N)c(C(F)(F)F)c1 (stereo not drawn) [Compound 33, 1-[4-amino-3-chloro-5-(trifluoromethyl)phenyl] -2-(1-methylbutylamino)-1-ethanol]	–	–	> 75	50 to 75	–
O[C@H](c1cncc(F)c1)C12CCC(COCc3ccc(OC(F)(F)F)cc3)(CC1)N2 [Compound 490]	< 25	50 to 75	–	–	–
CCCCNC[C@H](O)c1cccc(O)c1F [Compound 87, (R)-2-(butylamino)-1-(2-fluoro-3-hydroxyphenyl)-1-ethanol]	–	–	25 to 50	> 75	–
CNS(=O)(=O)[C@H]1CC[C@@H](CC(C)(C)NC[C@H](O)c2cccc(F)c2)CC1 [Compound 477, (R)-2-{1,1-dimethyl-2-[(1s,4S)-4-(methylaminosulfonyl)cyclohexyl]ethylamino}-1-(m-fluorophenyl)-1-ethanol]	< 25	50 to 75	–	–	–
CC12CC(C1)[C@H]([C@H](O)c1cccc(F)c1)N2 [Compound 186]	–	–	50 to 75	> 75	–
CN(C)C(=O)N[C@H]1CC[C@H](CC(C)(C)NC[C@H](O)c2cccc(F)c2)CC1 [Compound 430, (R)-2-{1,1-dimethyl-2-[(1r,4R)-4-(3,3-dimethylureido)cyclohexyl]ethylamino}-1-(m-fluorophenyl)-1-ethanol]	50 to 75	> 75	–	–	–
CC(=O)N[C@H]1CC[C@H](CC(C)(C)NC[C@@H](O)c2cccc(C#N)n2)CC1 [Compound 427]	< 25	< 25	–	–	–
CCCCNCC(O)c1ccc(F)c(F)c1 (stereo not drawn) [Compound 56, 2-(butylamino)-1-(3,4-difluorophenyl)-1-ethanol]	–	–	< 25	50 to 75	–
CO[C@H]1CC[C@@H](CCC(C)(C)NC[C@H](O)c2cncc(F)c2)CC1 [Compound 266]	< 25	> 75	–	–	–
CCC[C@@H]1CCC[C@@H]([C@@H](O)c2cccc(Cl)c2)N1 [Compound 114]	–	–	< 25	25 to 50	–
CC(C)(C)NC[C@H](O)c1cccc(O)c1F [Compound 86, (R)-2-(tert-butylamino)-1-(2-fluoro-3-hydroxyphenyl)-1-ethanol]	–	–	50 to 75	50 to 75	–
O[C@@H](c1cccc(F)c1)C12CCC(COCc3ccc(OC(F)(F)F)cc3)(CC1)N2 [Compound 487]	< 25	< 25	–	–	–
CCCCNCC(O)c1cccc(Cl)c1 (stereo not drawn) [Compound 2, 2-(butylamino)-1-(m-chlorophenyl)-1-ethanol]	–	–	< 25	25 to 50	–
CC1(C)C[C@@H]([C@@H](O)c2cccc(F)c2)N1 [Compound 199]	< 25	25 to 50	–	–	–
CC1(C)CC[C@H]([C@H](O)c2cccc(Cl)c2)N1 [Compound 154, (R)-[(R)-5,5-dimethyl-2-pyrrolidinyl](m-chlorophenyl)methanol]	–	–	< 25	> 75	–
CC(C)(C)NC[C@H](O)c1cncc(F)c1 [Compound 99, (R)-2-(tert-butylamino)-1-(5-fluoro-3-pyridyl)-1-ethanol]	–	–	25 to 50	> 75	–
COc1ccc(C[C@@H]2CC[C@H]([C@@H](O)c3cncc(F)c3)N2)cc1 [Compound 377, (S)-{(2R,5S)-5-[(p-methoxyphenyl)methyl]-2-pyrrolidinyl}(5-fluoro-3-pyridyl)methanol]	< 25	> 75	–	–	–
CCCCCCCCNCC(O)c1ccc(O)cc1 (stereo not drawn) [Compound 18, 1-(p-hydroxyphenyl)-2-(octylamino)-1-ethanol]	–	–	< 25	25 to 50	–
CC1(C)CC[C@H]([C@@H](O)c2cncc(O)c2)N1 [Compound 166, 5-{(S)-[(R)-5,5-dimethyl-2-pyrrolidinyl] hydroxymethyl}-3-pyridinol]	–	–	< 25	25 to 50	–
